In one data set the target is CYP3A4 (Homo sapiens, UniProt P08684). Briefly: CYP inhibition in human liver microsomes, CYP3A4 (midazolam). In kind it is in vitro ADME. More on the design: incubated with human liver microsomes; tissue Eurofins ITEMG232; host or cells: human liver microsomes. Particulars: probe midazolam, substrate midazolam, read-out: CYP3A4 midazolam Inh %. How it is done:
(§1) The following substrates were used: CYP1A phenacetin, CYP2B6 bupropion, CYP2C8 paclitaxel and amodiaquine, CYP2C9 diclofenac, CYP2C19 omeprazole, CYP2D6 dextromethorphan, CYP3A midazolam and testosterone. At the end of the incubation, the formation of metabolite was monitored by HPLC-MS/MS as the peak area response.

For another data set, the target named is T1, CYP2B6 (Homo sapiens, UniProt P20813).
T1 construct: incubated with human liver microsomes; tissue Eurofins ITEMG232; host or cells: human liver microsomes
T1 sequence (P20813 1-491): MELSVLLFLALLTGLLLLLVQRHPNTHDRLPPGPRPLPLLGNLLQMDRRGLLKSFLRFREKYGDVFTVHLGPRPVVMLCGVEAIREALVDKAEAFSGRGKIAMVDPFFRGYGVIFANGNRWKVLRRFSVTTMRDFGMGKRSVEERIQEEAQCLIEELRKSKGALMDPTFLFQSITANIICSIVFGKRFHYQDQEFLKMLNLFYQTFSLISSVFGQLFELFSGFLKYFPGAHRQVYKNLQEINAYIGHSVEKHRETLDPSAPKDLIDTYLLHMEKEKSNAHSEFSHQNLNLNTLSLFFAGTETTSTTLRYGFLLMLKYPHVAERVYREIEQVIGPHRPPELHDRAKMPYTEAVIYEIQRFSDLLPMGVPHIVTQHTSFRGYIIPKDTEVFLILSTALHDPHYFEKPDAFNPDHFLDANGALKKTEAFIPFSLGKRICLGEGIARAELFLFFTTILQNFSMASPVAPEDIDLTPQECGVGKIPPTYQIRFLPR
The data set is described as follows: CYP inhibition in human liver microsomes, CYP2B6. Format: in vitro ADME. Particulars: probe bupropion, substrate bupropion, read-out: CYP2B6 Inh %. The protocol:
as §1

The target of another data set is T2, CYP2C19 (Homo sapiens, UniProt P33261).
T2 construct: incubated with human liver microsomes; tissue Eurofins ITEMG232; host or cells: human liver microsomes
Briefly: CYP inhibition in human liver microsomes, CYP2C19. Particulars: probe omeprazole, substrate omeprazole, read-out: CYP2C19 Inh %. Format: in vitro ADME. The protocol:
as §1

The next data set addresses T3, CYP2C8 (Homo sapiens, UniProt P10632).
T3 construct: incubated with human liver microsomes; tissue Eurofins ITEMG232; host or cells: human liver microsomes
T3 sequence (P10632 1-490): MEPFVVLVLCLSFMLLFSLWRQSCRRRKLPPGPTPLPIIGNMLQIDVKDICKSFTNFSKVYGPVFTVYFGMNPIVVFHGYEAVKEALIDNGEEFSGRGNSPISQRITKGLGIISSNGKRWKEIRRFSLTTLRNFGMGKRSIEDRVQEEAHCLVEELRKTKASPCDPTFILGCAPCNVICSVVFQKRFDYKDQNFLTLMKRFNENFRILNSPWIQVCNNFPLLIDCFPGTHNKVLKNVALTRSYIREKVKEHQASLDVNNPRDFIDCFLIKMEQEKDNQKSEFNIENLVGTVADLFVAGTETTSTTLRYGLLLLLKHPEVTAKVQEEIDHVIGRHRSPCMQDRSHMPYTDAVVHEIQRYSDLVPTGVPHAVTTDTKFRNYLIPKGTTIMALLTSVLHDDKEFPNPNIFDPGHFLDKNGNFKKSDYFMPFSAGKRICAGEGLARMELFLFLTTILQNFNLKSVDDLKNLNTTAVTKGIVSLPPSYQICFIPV
Briefly: CYP inhibition in human liver microsomes, CYP2C8. Format: in vitro ADME. The conditions noted are these: probe paclitaxel and amodiaquine, substrate paclitaxel and amodiaquine, read-out: CYP2C8 Inh %. How it is done: as §1

A further data set has as its system CYP3A4&5. The data set is described as follows: CYP inhibition in human liver microsomes, CYP3A4&5 (testosterone). In kind it is in vitro ADME. The conditions noted are these: probe testosterone, substrate testosterone, read-out: CYP3A4&5 testosterone Inh %. The protocol: as §1
The target of a further data set is CYP2C9 (Homo sapiens, UniProt P11712). Briefly: CYP inhibition in human liver microsomes, CYP2C9. Particulars: probe diclofenac, substrate diclofenac, read-out: CYP2C9 Inh %. In kind it is in vitro ADME. More on the design: incubated with human liver microsomes; tissue Eurofins ITEMG232; host or cells: human liver microsomes. The protocol: as §1
The next data set concerns the target T4, CYP2D6 (Homo sapiens, UniProt P10635).
T4 construct: incubated with human liver microsomes; tissue Eurofins ITEMG232; host or cells: human liver microsomes
The data set is described as follows: CYP inhibition in human liver microsomes, CYP2D6. Format: in vitro ADME. The conditions noted are these: probe dextromethorphan, substrate dextromethorphan, read-out: CYP2D6 Inh %. The protocol: as §1

For the next data set, the target named is T5, CYP1A (Homo sapiens, UniProt P05177).
T5 construct: incubated with human liver microsomes; tissue Eurofins ITEMG232; host or cells: human liver microsomes
T5 sequence (P05177 1-516): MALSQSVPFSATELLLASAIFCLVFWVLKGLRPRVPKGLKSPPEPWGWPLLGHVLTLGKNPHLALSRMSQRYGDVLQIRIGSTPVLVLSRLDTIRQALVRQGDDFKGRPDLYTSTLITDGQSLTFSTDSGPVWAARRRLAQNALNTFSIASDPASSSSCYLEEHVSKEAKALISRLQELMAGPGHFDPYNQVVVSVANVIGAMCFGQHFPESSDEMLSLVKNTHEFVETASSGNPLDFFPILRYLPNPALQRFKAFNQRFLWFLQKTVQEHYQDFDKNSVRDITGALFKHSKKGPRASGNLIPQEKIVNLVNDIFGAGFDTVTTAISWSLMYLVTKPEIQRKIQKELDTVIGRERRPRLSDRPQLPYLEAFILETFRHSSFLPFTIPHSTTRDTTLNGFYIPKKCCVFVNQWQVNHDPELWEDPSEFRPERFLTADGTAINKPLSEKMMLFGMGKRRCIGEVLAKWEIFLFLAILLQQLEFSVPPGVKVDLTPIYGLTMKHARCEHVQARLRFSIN
Briefly: CYP inhibition in human liver microsomes, CYP1A. Particulars: probe phenacetin, substrate phenacetin, read-out: CYP1A Inh %. Format: in vitro ADME. The protocol: as §1

The nature of data set [1]: Metabolic stability in pooled human liver microsomes. In kind it is in vitro ADME. Particulars: pooled human liver microsomes 0.5 mg/ml, 1 μM test compound, 37° C. The protocol: Pooled human liver microsomes in PBS at a concentration of 0.5 mg/ml was incubated with or without 1 mM NADPH for 70 min at 37° C. Test compound was added after 10 minutes to a final concentration of 1 μM. Samples were withdrawn at 0, 5, 15 and 60 minutes and added to test tubes containing acetonitrile, to stop the reaction, and with terfenadine, used as internal standard. After centrifugation at 10 000×g for 5 minutes the supernatant was diluted 1:1 with 1% formic acid. Samples were separated on a reverse phase column and detected by triple quadrupole MSMS (Agilant model 6540). The concentration of the parent compound at the different time points was measured with an external standard curve using terfenadine as internal standard and the initial metabolic rate in the presence or absence of NADPH calculated.

For data set [2], the target named is T6, human recombinant AT2 receptor (Homo sapiens, UniProt P50052).
T6 construct: purchased Eurofins ITEM26
T6 sequence (P50052 1-363): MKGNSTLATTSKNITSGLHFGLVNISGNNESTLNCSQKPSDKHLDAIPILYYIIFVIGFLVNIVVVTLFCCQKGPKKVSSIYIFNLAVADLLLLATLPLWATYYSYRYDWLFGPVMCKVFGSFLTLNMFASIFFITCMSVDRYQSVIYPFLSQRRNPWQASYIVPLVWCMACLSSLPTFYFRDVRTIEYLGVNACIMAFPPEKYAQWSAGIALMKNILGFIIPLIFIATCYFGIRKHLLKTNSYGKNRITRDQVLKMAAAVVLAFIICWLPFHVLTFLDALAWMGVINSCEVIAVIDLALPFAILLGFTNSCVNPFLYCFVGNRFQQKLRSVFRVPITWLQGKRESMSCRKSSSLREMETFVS
Briefly: Binding to AT2 receptor, radiometric scintillation assay (Eurofins). Particulars: ligand 125I CGP 42112A, tested at 1, 10, 100 and 1000 nM. The protocol:
Compounds were evaluated for binding to the human recombinant AT2 and AT1 receptor according to Eurofins protocol ITEM26 and ITEM24 using a radiometric scintillation assay.

Setting [3] is: with 1 mM NADPH, read-out: T1/2, + NaDPH.
Where [4] appears, read: without NADPH, read-out: T1/2, no NaDPH.

Molecules are shown by their SMILES. pIC50: −log10 of the molar value. Where two headings read alike, the source gives them in different places. Some results are limits rather than exact numbers.

Sequence of CYP3A4 (P08684 whole entry): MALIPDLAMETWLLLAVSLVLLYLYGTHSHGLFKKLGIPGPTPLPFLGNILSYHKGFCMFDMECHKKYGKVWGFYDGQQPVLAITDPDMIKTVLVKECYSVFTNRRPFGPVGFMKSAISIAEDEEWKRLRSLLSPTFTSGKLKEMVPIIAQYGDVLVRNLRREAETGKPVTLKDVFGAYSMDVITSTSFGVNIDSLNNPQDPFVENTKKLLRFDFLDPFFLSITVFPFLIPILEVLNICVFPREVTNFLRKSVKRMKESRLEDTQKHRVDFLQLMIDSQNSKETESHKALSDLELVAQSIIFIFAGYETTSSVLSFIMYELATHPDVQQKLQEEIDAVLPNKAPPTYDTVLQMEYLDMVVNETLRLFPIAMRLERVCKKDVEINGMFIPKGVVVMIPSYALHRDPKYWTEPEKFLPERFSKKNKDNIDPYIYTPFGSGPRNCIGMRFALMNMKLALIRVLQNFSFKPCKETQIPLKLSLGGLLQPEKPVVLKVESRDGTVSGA
T2 sequence (P33261 whole entry): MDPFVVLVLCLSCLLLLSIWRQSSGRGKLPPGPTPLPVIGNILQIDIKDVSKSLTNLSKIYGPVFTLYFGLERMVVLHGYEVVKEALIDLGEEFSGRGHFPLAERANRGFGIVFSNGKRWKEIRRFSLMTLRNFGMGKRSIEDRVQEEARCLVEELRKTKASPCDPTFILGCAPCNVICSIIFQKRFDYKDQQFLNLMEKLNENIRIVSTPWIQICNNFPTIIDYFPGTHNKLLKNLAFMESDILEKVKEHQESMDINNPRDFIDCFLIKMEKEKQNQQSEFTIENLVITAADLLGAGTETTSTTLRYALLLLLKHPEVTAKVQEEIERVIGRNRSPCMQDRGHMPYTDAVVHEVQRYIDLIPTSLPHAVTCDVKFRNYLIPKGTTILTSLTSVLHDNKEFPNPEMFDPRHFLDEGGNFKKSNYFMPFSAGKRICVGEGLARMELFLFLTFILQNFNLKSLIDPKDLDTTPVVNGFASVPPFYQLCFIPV
T4 sequence (P10635 whole entry): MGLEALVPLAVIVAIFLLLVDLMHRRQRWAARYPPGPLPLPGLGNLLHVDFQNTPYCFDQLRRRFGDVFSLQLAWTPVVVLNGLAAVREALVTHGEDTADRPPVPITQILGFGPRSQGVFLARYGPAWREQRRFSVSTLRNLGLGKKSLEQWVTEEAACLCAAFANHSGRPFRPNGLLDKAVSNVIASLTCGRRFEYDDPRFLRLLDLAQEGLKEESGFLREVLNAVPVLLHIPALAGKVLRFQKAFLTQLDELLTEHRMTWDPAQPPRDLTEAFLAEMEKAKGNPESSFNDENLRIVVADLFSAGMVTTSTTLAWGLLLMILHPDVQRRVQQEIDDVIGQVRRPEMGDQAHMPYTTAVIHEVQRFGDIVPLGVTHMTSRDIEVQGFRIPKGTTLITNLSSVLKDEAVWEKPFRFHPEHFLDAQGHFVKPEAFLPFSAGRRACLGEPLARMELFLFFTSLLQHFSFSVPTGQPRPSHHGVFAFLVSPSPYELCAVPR
Sequence of CYP2C9 (P11712 whole entry): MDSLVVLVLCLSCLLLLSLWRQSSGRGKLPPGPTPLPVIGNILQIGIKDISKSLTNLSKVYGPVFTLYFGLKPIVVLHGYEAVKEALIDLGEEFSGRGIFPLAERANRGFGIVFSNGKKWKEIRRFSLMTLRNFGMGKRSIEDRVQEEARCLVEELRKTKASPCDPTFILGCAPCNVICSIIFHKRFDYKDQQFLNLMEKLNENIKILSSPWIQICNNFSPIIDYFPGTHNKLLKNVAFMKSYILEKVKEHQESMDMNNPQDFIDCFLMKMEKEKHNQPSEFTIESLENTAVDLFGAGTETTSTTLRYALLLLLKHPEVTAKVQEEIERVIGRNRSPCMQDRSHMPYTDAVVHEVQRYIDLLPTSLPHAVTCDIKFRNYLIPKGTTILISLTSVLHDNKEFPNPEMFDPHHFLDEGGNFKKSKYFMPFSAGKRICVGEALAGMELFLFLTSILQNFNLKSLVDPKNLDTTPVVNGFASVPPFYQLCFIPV

With `Cc1nccn1Cc1ccc(-c2cc(CC(C)C)sc2S(=O)(=O)NC(=O)NCCC(F)(F)F)cc1` [Example 3, 3-(5-isobutyl-3-{p-[(2-Methyl-1H-imidazol-1-yl)methyl]phenyl}-2-thienylsulfonyl)-1-(3,3,3-trifluoropropyl)-urea], the inhibition at 10 µM is 4.1% on CYP3A4; 9.9% at CYP2B6; 37.3% at CYP2C19; 25.3% at CYP2C8; 8.2% in the data set with CYP3A4&5; 21.6% at CYP2C9. Further, the inhibition at 10 µM at CYP2D6 is 5.5%; on CYP1A, -4.2%. In addition, the half-life at 1 μM in data set [1] (setting [3]) and in data set [1] (setting [4]) was more than 1 h throughout.

Turning to `Cc1cn(Cc2ccc(-c3cc(CC(C)C)sc3S(=O)(=O)NC(=O)NCCC(F)(F)F)cc2)c(C)n1` [Example 8, 3-(3-{p-[(2,4-Dimethyl-1H-imidazol-1-yl)methyl]phenyl}-5-isobutyl-2-thienylsulfonyl)-1-(3,3,3-trifluoropropyl)urea], the inhibition at 10 µM at CYP3A4 was determined as 17.5%; on CYP2B6 it was 18.8%; at CYP2C19, 95.8%; on CYP2C8 it was 60.2%; in the data set with CYP3A4&5 it was 29.8%; on CYP2C9, 24%. The inhibition at 10 µM at CYP2D6 turned out to be 0%; on CYP1A, 21.2%. Besides, the half-life at 1 μM was 0.767 h in data set [1] (setting [3]) and more than 1 h in data set [1] (setting [4]).

As for `CCc1nccn1Cc1ccc(-c2cc(CC(C)C)sc2S(=O)(=O)NC(=O)NCc2ccccn2)cc1` [Example 9, 3-(3-{p-[(2-Ethyl-1H-imidazol-1-yl)methyl]phenyl}-5-isobutyl-2-thienylsulfonyl)-1-[(2-pyridyl)methyl]urea], the inhibition at 10 µM is -19% on CYP3A4; 0% on CYP2B6; 18% on CYP2C19; 52% at CYP2C8; 17% in the data set on CYP3A4&5; 28% on CYP2C9. In addition, the inhibition at 10 µM on CYP2D6 was 24%; at CYP1A, -9%. Moreover, the half-life at 1 μM in data set [1] (setting [3]) and in data set [1] (setting [4]) was more than 1 h in each case.

Turning to `Cc1nccn1Cc1ccc(-c2cc(CC(C)C)sc2S(=O)(=O)NC(=O)NCc2ccccc2)cc1F` [Example 12, 1-Benzyl-3-(3-{3-fluoro-4-[(2-methyl-1H-imidazol-1-yl)methyl]phenyl}-5-isobutyl-2-thienylsulfonyl)urea], the inhibition at 10 µM at CYP3A4 amounted to 32%; at CYP2B6 it was 33%; on CYP2C19, 62%; on CYP2C8, 51%; with CYP3A4&5, 24%; on CYP2C9 it was 64%. In addition, the figures for the inhibition at 10 µM on CYP2D6 and on CYP1A were 58% and 4%, respectively.

Regarding `Cc1nccn1Cc1ccc(-c2cc(CC(C)C)sc2S(=O)(=O)NC(=O)NCCC(F)(F)F)c(F)c1` [Example 26, 3-(3-{2-Fluoro-4-[(2-methyl-1H-imidazol-1-yl)methyl]phenyl}-5-isobutyl-2-thienylsulfonyl)-1-(3,3,3-trifluoropropyl)urea], in [2], the pIC50 was 7.60. Also, the half-life at 1 μM in [1] (setting [3]) and in data set [1] (setting [4]) was more than 1 h each time.

In the case of `Cc1nccn1Cc1ccc(-c2cc(CC(C)C)sc2S(=O)(=O)NC(=O)NCC(F)(F)F)c(F)c1` [Example 27, 3-(3-{2-Fluoro-4-[(2-methyl-1H-imidazol-1-yl)methyl]phenyl}-5-isobutyl-2-thienylsulfonyl)-1-(2,2,2-trifluoroethyl)urea], the pIC50 in data set [2] is 7.21.

As for `Cc1nccn1Cc1ccc(-c2cc(CC(C)C)sc2S(=O)(=O)NC(=O)NCCCF)cc1` [Example 28, 1-(3-Fluoropropyl)-3-(5-isobutyl-3-{p-[(2-methyl-1H-imidazol-1-yl)methyl]phenyl}-2-thienylsulfonyl)urea], in [2], the pIC50 was 7.49. The half-life at 1 μM in data set [1] (setting [3]) and in data set [1] (setting [4]) was more than 1 h each time.

In the case of `Cc1nccn1Cc1ccc(-c2cc(CC(C)C)sc2S(=O)(=O)NC(=O)NCCC(F)F)cc1` [Example 29, 1-(3,3-Difluoropropyl)-3-(5-isobutyl-3-{p-[(2-methyl-1H-imidazol-1-yl)methyl]phenyl}-2-thienylsulfonyl)urea], the pIC50 in data set [2] was 7.48.

These data come from patent publication US12435072B2, “Compounds” (Vicore Pharma AB, priority 2019, dated 2025).
